This experiment has as its target T1, full-length SARM1 (FL-SARM1) (Homo sapiens, UniProt Q6SZW1).
T1 sequence (Q6SZW1 28-724): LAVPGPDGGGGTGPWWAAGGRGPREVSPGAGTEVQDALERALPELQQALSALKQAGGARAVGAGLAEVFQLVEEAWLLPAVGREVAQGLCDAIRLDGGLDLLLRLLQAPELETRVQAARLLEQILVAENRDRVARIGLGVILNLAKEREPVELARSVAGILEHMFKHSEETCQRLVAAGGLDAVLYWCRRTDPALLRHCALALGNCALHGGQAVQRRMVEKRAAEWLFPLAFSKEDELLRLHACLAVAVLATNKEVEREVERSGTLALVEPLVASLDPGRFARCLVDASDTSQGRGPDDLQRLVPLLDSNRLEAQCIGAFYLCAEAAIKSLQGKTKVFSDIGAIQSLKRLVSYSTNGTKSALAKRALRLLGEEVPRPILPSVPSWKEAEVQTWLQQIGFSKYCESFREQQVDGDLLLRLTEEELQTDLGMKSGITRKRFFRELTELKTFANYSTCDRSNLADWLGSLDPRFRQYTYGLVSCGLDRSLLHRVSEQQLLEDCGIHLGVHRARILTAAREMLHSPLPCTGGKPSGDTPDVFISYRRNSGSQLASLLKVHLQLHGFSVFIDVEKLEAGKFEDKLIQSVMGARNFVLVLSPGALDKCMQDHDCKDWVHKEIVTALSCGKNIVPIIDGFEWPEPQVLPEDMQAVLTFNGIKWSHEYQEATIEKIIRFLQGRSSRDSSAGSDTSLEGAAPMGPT
Put plainly: FL-SARM1 cellular lysate assay (NAD/NADH-Glo detection of remaining NAD+, NMN-activated). The settings on record: for IC50: Activity (μM) (IC50).

The mark [1] stands for this setting: read-out: Activity (IC50 class), 11 point curve.
Setting [2] is: Activity (IC50 class), 11 point curve.

These results are taken from patent publication US20250171462A1 (NICO Therapeutics, Inc., priority 2022, published 2025).

The term IC50 denotes the concentration at which inhibition is half-maximal. A low value points to inhibition by little substance. One may read the pIC50 as the negative decadic logarithm of the IC50, by convention in mol/L.

pIC50: −log10 of the molar value. Read-outs that look alike come from different tables or passages of the source.

Turning to `Cc1cnc(-c2cc(NC(=O)N3C4C[C@@H](C)C[C@H]3C4)c(F)cc2C)nn1` [Example 239, cis-N-[2-fluoro-4-methyl-5-(6-methyl-1,2,4-triazin-3-yl)phenyl]-3-methyl-6-azabicyclo[3.1.1]heptane-6-carboxamide], where the note is “11 point curve”, inhibition was half-maximal at 0.2 µM (IC50). Further, the pIC50 under setting [1] is 6.00 to 10.00.

The compound `Cc1cc(F)c(NC(=O)N2[C@@H]3C[C@@H](C)C[C@H]2C3)cc1-c1nccnn1` [Example 240, cis-N-[2-fluoro-4-methyl-5-(1,2,4-triazin-3-yl)phenyl]-3-methyl-6-azabicyclo[3.1.1]heptane-6-carboxamide] yielded an IC50 (11 point curve) of 0.09 µM. The pIC50 under setting [1] was 6.00 to 10.00.

In the case of `Cc1cc(F)c(NC(=O)N2C3C[C@@H](C4CC4)C[C@H]2C3)cc1-c1cccnn1` [Example 241, cis-3-cyclopropyl-N-(2-fluoro-4-methyl-5-pyridazin-3-ylphenyl)-6-azabicyclo[3.1.1]heptane-6-carboxamide], the IC50 (11 point curve) turned out to be 0.09 µM. Under setting [1], the pIC50 is 6.00 to 10.00.

For the compound `Cc1ccc(-c2cc(NC(=O)N3[C@@H]4C[C@@H](C)C[C@H]3C4)ccc2C)nn1` [Example 242, cis-3-methyl-N-[4-methyl-3-(6-methylpyridazin-3-yl)phenyl]-6-azabicyclo[3.1.1]heptane-6-carboxamide], for the setting “11 point curve”, the IC50 was found to be 0.07 µM. In addition, the pIC50 under setting [1] was 6.00 to 10.00.

On to `COCCOCc1ccnc(-c2cc(NC(=O)N3[C@@H]4C[C@@H](C)C[C@H]3C4)ccc2C)n1` [Example 243, cis-N-[3-[4-(2-methoxyethoxymethyl)pyrimidin-2-yl]-4-methylphenyl]-3-methyl-6-azabicyclo[3.1.1]heptane-6-carboxamide], for which, under setting [2], the pIC50 is 5.00 to 6.00. Where the note is “11 point curve”, the midpoint of inhibition, the IC50, lay at 1.1 µM.

With `Cc1cc(C(F)(F)F)c(NC(=O)N2[C@@H]3C[C@@H](C)C[C@H]2C3)cc1-c1cccnn1` [Example 244, cis-3-methyl-N-[4-methyl-5-pyridazin-3-yl-2-(trifluoromethyl)phenyl]-6-azabicyclo[3.1.1]heptane-6-carboxamide], the pIC50 under setting [2] was less than 5.00. The compound also showed an IC50 (11 point curve) of 16 µM.

On to `C[C@@H]1C[C@@H]2C[C@H](C1)N2C(=O)Nc1cc(-c2cccnn2)c(C(F)(F)F)cc1F` [Example 245, cis-N-[2-fluoro-5-pyridazin-3-yl-4-(trifluoromethyl)phenyl]-3-methyl-6-azabicyclo[3.1.1]heptane-6-carboxamide], for which the IC50 (11 point curve) came to 0.2 µM. Besides, the pIC50 under setting [1] was 6.00 to 10.00.

Under setting [2], `Cc1cc(F)c(NC(=O)N2C3CCCC2C3)cc1-c1nccnn1` [Example 246, N-[2-fluoro-4-methyl-5-(1,2,4-triazin-3-yl)phenyl]-6-azabicyclo[3.1.1]heptane-6-carboxamide] gave a pIC50 of 5.00 to 6.00. Further, the half-maximal inhibitory concentration (IC50) (11 point curve) was determined as 2 µM.

`Cc1cc(F)c(NC(=O)N2C3CCCC2C3)cc1-c1cc(Cl)cnn1` [Example 247, N-[5-(5-chloropyridazin-3-yl)-2-fluoro-4-methylphenyl]-6-azabicyclo[3.1.1]heptane-6-carboxamide] displayed an IC50 (11 point curve) of 0.4 µM. Moreover, under setting [1], the pIC50 is 6.00 to 10.00.

`Cc1ccc(NC(=O)N2C3CCCC2C3)cc1-c1ncc(F)cc1F` [Example 248, N-[3-(3,5-difluoropyridin-2-yl)-4-methylphenyl]-6-azabicyclo[3.1.1]heptane-6-carboxamide] showed an IC50 (11 point curve) of 0.2 µM. Besides, the pIC50 under setting [1] was 6.00 to 10.00.

`COc1cnnc(-c2cc(NC(=O)N3C4CCCC3C4)c(F)cc2C)c1` [Example 249, N-[2-fluoro-5-(5-methoxypyridazin-3-yl)-4-methylphenyl]-6-azabicyclo[3.1.1]heptane-6-carboxamide] displayed an IC50 (11 point curve) of 0.9 µM. Also, under setting [1], the negative-log IC50 (pIC50) was 6.00 to 10.00.

On to `Cc1c(-c2ncc(F)cn2)cc(NC(=O)N2C3CCCC2C3)c(F)c1F` [Example 250, N-[2,3-difluoro-5-(5-fluoropyrimidin-2-yl)-4-methylphenyl]-6-azabicyclo[3.1.1]heptane-6-carboxamide], for which the pIC50 under setting [2] was 5.00 to 6.00. This compound also came in with an IC50 (11 point curve) of 1.5 µM.

On to `Cc1ccc(NC(=O)N2C3CCCC2C3)cc1-c1ncc(F)c(C#N)n1` [Example 251, N-[3-(4-cyano-5-fluoropyrimidin-2-yl)-4-methylphenyl]-6-azabicyclo[3.1.1]heptane-6-carboxamide], for which the pIC50 under setting [2] was 5.00 to 6.00. The compound also gave an IC50 (11 point curve) of 1 µM.

Consider `Cc1ccc(NC(=O)N2C3CCCC2C3)cc1-c1ncc(Cl)cn1` [Example 252, N-[3-(5-chloropyrimidin-2-yl)-4-methylphenyl]-6-azabicyclo[3.1.1]heptane-6-carboxamide], for which, under “11 point curve”, the IC50 was found to be 0.5 µM. In addition, under setting [1], the pIC50 is 6.00 to 10.00.

In turn, `Cc1cc(F)c(NC(=O)N2[C@@H]3C[C@@H](C)C[C@H]2C3)cc1-c1ncccn1` [Example 253, cis-N-(2-fluoro-4-methyl-5-pyrimidin-2-ylphenyl)-3-methyl-6-azabicyclo[3.1.1]heptane-6-carboxamide] returned an IC50 (11 point curve) of 0.08 µM. In addition, the negative logarithm of the IC50 (pIC50) under setting [1] is 6.00 to 10.00.

Take `Cc1cc(F)c(NC(=O)N2C3C[C@@H](C)C[C@H]2C3)cc1-c1ncc(F)cn1` [Example 254, cis-N-[2-fluoro-5-(5-fluoropyrimidin-2-yl)-4-methylphenyl]-3-methyl-6-azabicyclo[3.1.1]heptane-6-carboxamide]: the IC50 (11 point curve) was determined as 0.02 µM. Moreover, the pIC50 under setting [1] is 6.00 to 10.00.

`Cc1cc(F)c(NC(=O)N2[C@@H]3C[C@@H](C)C[C@H]2C3)cc1-c1ccccn1` [Example 255, cis-N-(2-fluoro-4-methyl-5-pyridin-2-ylphenyl)-3-methyl-6-azabicyclo[3.1.1]heptane-6-carboxamide]: the IC50 (11 point curve) worked out at 0.02 µM. The pIC50 under setting [1] was 6.00 to 10.00.

For `Cc1cc(F)c(NC(=O)N2[C@@H]3C[C@@H](C)C[C@H]2C3)cc1-c1cccnn1` [Example 256, cis-N-(2-fluoro-4-methyl-5-pyridazin-3-ylphenyl)-3-methyl-6-azabicyclo[3.1.1]heptane-6-carboxamide], 0.1 µM corresponded to half-maximal inhibition (11 point curve) (IC50). In addition, the pIC50 under setting [1] is 6.00 to 10.00.

Turning to `Cc1ccc(NC(=O)[C@H]2C[C@H]3C[C@H]3N2Cc2ncccn2)cc1-c1ncc(F)cn1` [Example 261], under setting [2], the pIC50 was less than 5.00. Besides, under “11 point curve”, the IC50 was determined as 34 µM.

Turning to `Cc1ccc(NC(=O)[C@H]2C[C@H]3C[C@H]3N2c2nccnn2)cc1-c1ncc(F)cn1` [Example 262, (1R,3R,5R)-N-(3-(5-fluoropyrimidin-2-yl)-4-methylphenyl)-2-(1,2,4-triazin-3-yl)-2-azabicyclo[3.1.0]hexane-3-carboxamide], the pIC50 under setting [2] is 5.00 to 6.00. For the setting “11 point curve”, 2.5 µM corresponded to half-maximal inhibition (IC50).

In turn, `Cc1ccc(NC(=O)[C@H]2C[C@H]3C[C@H]3N2c2ncc(Cl)nn2)cc1-c1ncc(F)cn1` [Example 263, (1R,3R,5R)-2-(6-chloro-1,2,4-triazin-3-yl)-N-[3-(5-fluoropyrimidin-2-yl)-4-methylphenyl]-2-azabicyclo[3.1.0]hexane-3-carboxamide] gave a pIC50 under setting [2] of 5.00 to 6.00. The IC50 (11 point curve) turned out to be 1.8 µM.

For the compound `Cc1ccc(NC(=O)[C@H]2C[C@H]3C[C@H]3N2c2cnccn2)cc1-c1ncc(F)cn1` [Example 264, (1R,3R,5R)-N-[3-(5-fluoropyrimidin-2-yl)-4-methylphenyl]-2-pyrazin-2-yl-2-azabicyclo[3.1.0]hexane-3-carboxamide], under setting [2], the negative-log IC50 (pIC50) is 5.00 to 6.00. Where the note is “11 point curve”, the IC50 was determined as 1.1 µM.

`Cc1ccc(NC(=O)[C@H]2C[C@H]3C[C@H]3N2c2ccncn2)cc1-c1ncc(F)cn1` [Example 265, (1R,3R,5R)-N-[3-(5-fluoropyrimidin-2-yl)-4-methylphenyl]-2-pyrimidin-4-yl-2-azabicyclo[3.1.0]hexane-3-carboxamide] showed a pIC50 under setting [2] of 5.00 to 6.00. Further, the midpoint of inhibition (11 point curve), the IC50, lay at 1.9 µM.

For the compound `Cc1ccc(NC(=O)[C@H]2C[C@H]3C[C@H]3N2c2ncccn2)cc1-c1ncccn1` [Example 266, (1R,3R,5R)-N-(4-methyl-3-pyrimidin-2-ylphenyl)-2-pyrimidin-2-yl-2-azabicyclo[3.1.0]hexane-3-carboxamide], the pIC50 under setting [2] was 5.00 to 6.00. Also, inhibition (11 point curve) was half-maximal at 4.2 µM (IC50).

With `Cc1ccc(NC(=O)[C@H]2C[C@H]3C[C@H]3N2c2ncccn2)cc1-c1ncc(F)cn1` [Example 267, (1R,3R,5R)-N-[3-(5-fluoropyrimidin-2-yl)-4-methylphenyl]-2-pyrimidin-2-yl-2-azabicyclo[3.1.0]hexane-3-carboxamide], the pIC50 under setting [2] is 5.00 to 6.00. Besides, the midpoint of inhibition (11 point curve), the IC50, lay at 3.1 µM.

Turning to `Cc1ccc(NC(=O)[C@@H]2C[C@@H]3C[C@@H]3N2c2ncccn2)cc1-c1ncc(F)cn1` [Example 268, (1S,3S,5S)-N-[3-(5-fluoropyrimidin-2-yl)-4-methylphenyl]-2-pyrimidin-2-yl-2-azabicyclo[3.1.0]hexane-3-carboxamide], under setting [2], the pIC50 was less than 5.00. The compound also came in with an IC50 (11 point curve) of 33 µM.

Take `Cc1ccc(NC(=O)[C@H]2C[C@@H]3C[C@@H]3N2c2ncccn2)cc1-c1ncc(F)cn1` [Example 269, (1S,3R,5S)-N-[3-(5-fluoropyrimidin-2-yl)-4-methylphenyl]-2-pyrimidin-2-yl-2-azabicyclo[3.1.0]hexane-3-carboxamide]: the pIC50 under setting [2] is less than 5.00. The compound also gave an IC50 (11 point curve) of 47 µM.
